Measured values published in patent US8288390B2, “Benzofuran derivatives” (Takeda Pharmaceutical Company Limited, priority 2009, dated 2012).
Where a name gives a salt, the structure may show the parent alone.

Test system: rat mixed glial culture
Test: Activity of promoting neuronal neogenesis in rat mixed glial culture
Type: cell-based
Conditions: Rattus norvegicus, 72 h, compound 1 μM + rhIGF-1 100 ng/ml, 3 days culture; absorbance at 450 nm (class III beta-tubulin antibody); control rhIGF-1 only = 100%; read-out: Increase Ratio of the Absorbance (% control)
Protocol: From a three-day old SD rat, hippocampus and cerebral cortex were removed. By using a kit of dispersion liquid for neuronal cells (MB-X9901, manufactured by SUMITOMO BAKELITE CO., LTD.), cell suspension was prepared and then seeded on a 96-well plate coated with collagen Type I (4860-010, manufactured by Asahi Techno Glass Co., Ltd.) to 10^5 cells/well. Under the condition of 37° C. and 5% CO2, the cells were cultured for four days in a growth medium (D-MEM/F12 with 10% FBS, comprising PS).
After culturing, the medium was exchanged with a medium for differentiation (D-MEM/F12, comprising PS), added with rhIGF-1 (R&D Systems, 291-G1-250, final concentration of 100 ng/ml) and the compound to 1 μM, followed by further culture for three days. Cultured cells were fixed with 4% paraformaldehyde-PBS (manufactured by MUTO PURE CHEMICALS CO., LTD.) and subjected to membrane penetration using 0.1% Triton X-100 PBS, followed by blocking with Block Ace solution (UK-B80, manufactured by Dainippon Sumitomo Pharma Co., Ltd.). As a primary antibody, Anti-neuron-specific class III beta-tubulin antibody (R&D Systems, MAB1195, clone Tuj-1) was used after 1000× dilution. As a secondary antibody, Anti-Mouse Ig, HRP-Linked F (ab′) 2 Fragment Sheep (Amersham Biosciences, NA9310) was used after 10000× dilution. For washing process, the plate washer (BIO-TEK INSTRUMENTS ELX405) was used. For a chromogenic reaction, the reaction was carried out for 10 minutes using TMB Microwell Peroxidase Substrate System (Kirkegaard & Perry Laboratories, 50-76-00), followed by terminating the reaction according to the addition of 1M phosphoric acid. By using the plate reader (Labsystems Multiskan BICHROMATIC), absorbance at 450 nm was measured.
The absorbance for the case in which no compound is added (i.e., control, rhIGF-1 only) was 100%, and the increase ratio of the absorbance for the compound addition (i.e., compound+rhIGF-1) compared to the control was obtained as % control. Activity of the each compound for promoting neuronal differentiation that is measured according to the above method is summarized in Table 9 and Table 10.

**Q.** How did the activity at 1 µM turn out when `Cc1c(C)c(N2CCN(c3nc(-c4ccccc4)ns3)CC2)c(C)c2c1OC(C)(C)C2` [Example 87, 1-(2,2,4,6,7-Pentamethyl-2,3-dihydro-1-benzofuran-5-yl)-4-(3-phenyl-1,2,4-thiadiazol-5-yl)piperazine] was run?
**A.** Its activity at 1 µM is 256%.

**Q.** Which activity at 1 µM does the source give for `COc1ccc(N2CCN(c3c(C)c(C)c4c(c3C)CC(C)(CN)O4)CC2)cc1` (stereo not drawn) [Example 108, 1-{5-[4-(4-Methoxyphenyl)piperazin-1-yl]-2,4,6,7-tetramethyl-2,3-dihydro-1-benzofuran-2-yl}methaneamine] here?
**A.** Its activity at 1 µM is 282%.

**Q.** For `COc1ccc(C2CN(c3c(C)c(C)c4c(c3C)CC(C)(C)O4)CCO2)cc1` (stereo not drawn) [Example 15, 2-(4-Methoxyphenyl)-4-(2,2,4,6,7-pentamethyl-2,3-dihydro-1-benzofuran-5-yl)morpholine], which activity at 1 µM is on record?
**A.** The activity at 1 µM was 332%.

**Q.** `COc1ccc(N2CCN(c3c(C)c(C)c4c(c3C(C)C)CC(C)(C)O4)CC2)cc1` [Example 11, 1-(4-Methoxyphenyl)-4-[2,2,6,7-tetramethyl-4-(1-methylethyl)-2,3-dihydro-1-benzofuran-5-yl]piperazine] was tested. Which activity at 1 µM did it give?
**A.** Its activity at 1 µM is 159%.

**Q.** How did the activity at 1 µM turn out when `C=Cc1c2c(c(C)c(C)c1N1CCN(c3ccc(OC)cc3)CC1)OC(C)(C)C2` [Example 8, 1-(4-Ethenyl-2,2,6,7-tetramethyl-2,3-dihydro-1-benzofuran-5-yl)-4-(4-methoxyphenyl)piperazine] was run?
**A.** Its activity at 1 µM is 242%.

**Q.** How did the activity at 1 µM turn out when `COc1ccc(N2CCN(c3c(C)c(C)c4c(c3C)CC(C)(CNC(C)=O)O4)CC2)cc1` (stereo not drawn) [Example 137, N-({5-[4-(4-methoxyphenyl)piperazin-1-yl]-2,4,6,7-tetramethyl-2,3-dihydro-1-benzofuran-2-yl}methyl)acetamide] was run?
**A.** The activity at 1 µM was greater than 500%.

**Q.** How did the activity at 1 µM turn out when `COc1ccc(N2CCN(c3c(C)c(C)c4c(c3-c3ccoc3)CC(C)(C)O4)CC2)cc1` [Example 6, 1-(4-Furan-3-yl-2,2,6,7-tetramethyl-2,3-dihydro-1-benzofuran-5-yl)-4-(4-methoxyphenyl)piperazine] was run?
**A.** Its activity at 1 µM is greater than 500%.

**Q.** For `CC(=O)c1ccc(N2CCN(c3c(C)c(C)c4c(c3C)CC(C)(C)O4)CC2)cc1` [Example 95, 1-{4-[4-(2,2,4,6,7-Pentamethyl-2,3-dihydro-1-benzofuran-5-yl)piperazin-1-yl]phenyl}ethanone], which activity at 1 µM is on record?
**A.** The activity at 1 µM was 405%.

**Q.** With `COc1cc(N2CCN(c3c(C)c(C)c4c(c3C)CC(C)(C)O4)CC2)ccc1F` [Example 38, 1-(4-Fluoro-3-methoxyphenyl)-4-(2,2,4,6,7-pentamethyl-2,3-dihydro-1-benzofuran-5-yl)piperazine] as the compound, how does the activity at 1 µM read?
**A.** The activity at 1 µM was 294%.

**Q.** Which activity at 1 µM does the source give for `Cc1cc(N2CCN(c3c(C)c(C)c4c(c3C)CC(C)(C)O4)CC2)ccc1F` [Example 35, 1-(4-Fluoro-3-methylphenyl)-4-(2,2,4,6,7-pentamethyl-2,3-dihydro-1-benzofuran-5-yl)piperazine] here?
**A.** Its activity at 1 µM is 182%.

**Q.** Which activity at 1 µM does the source give for `COCC1(C)Cc2c(C)c(N3CCN(c4ccc(OC)cc4)CC3)c(C)c(C)c2O1` (stereo not drawn) [Example 101, 1-[2-(Methoxymethyl)-2,4,6,7-tetramethyl-2,3-dihydro-1-benzofuran-5-yl]-4-(4-methoxyphenyl)piperazine hydrochloric acid salt] here?
**A.** Its activity at 1 µM is greater than 500%.

**Q.** For `Cc1c(C)c(N2CCOC(Cc3ccccc3)C2)c(C)c2c1OC(C)(C)C2` (stereo not drawn) [Example 16, 2-Benzyl-4-(2,2,4,6,7-pentamethyl-2,3-dihydro-1-benzofuran-5-yl)morpholine], which activity at 1 µM is on record?
**A.** Its activity at 1 µM is 344%.

**Q.** With `COc1ccc(N2CCN(c3c(C)c4c(c(OC(C)C)c3C)OC(C)C4)CC2)cc1` (stereo not drawn) [Example 55, 1-(4-Methoxyphenyl)-4-[2,4,6-trimethyl-7-(1-methylethoxy)-2,3-dihydro-1-benzofuran-5-yl]piperazine] as the compound, how does the activity at 1 µM read?
**A.** The activity at 1 µM was greater than 500%.

**Q.** `COc1ccc(N2CCN(c3c(C)c(C)c4c(c3C)CC3(CCCC3)O4)CC2)cc1` [Example 19, 1-(4-Methoxyphenyl)-4-(4,6,7-trimethyl-3H-spiro[1-benzofuran-2,1′-cyclopentan]-5-yl)piperazine] was tested. Which activity at 1 µM did it give?
**A.** Its activity at 1 µM is 278%.

**Q.** How did the activity at 1 µM turn out when `CCOc1ccc(N2CCN(c3c(C)c4c(c(OCC)c3C)OC(C)C4)CC2)cc1` (stereo not drawn) [Example 61, 1-(4-Ethoxyphenyl)-4-(7-ethoxy-2,4,6-trimethyl-2,3-dihydro-1-benzofuran-5-yl)piperazine] was run?
**A.** Its activity at 1 µM is greater than 500%.

**Q.** With `COc1ccc(N2CCN(c3c(C)c(C)c4c(c3C)CC(C)(CN3CCC(O)CC3)O4)CC2)cc1` (stereo not drawn) [Example 133, 1-({5-[4-(4-methoxyphenyl)piperazin-1-yl]-2,4,6,7-tetramethyl-2,3-dihydro-1-benzofuran-2-yl}methyl)piperidine-4-ol] as the compound, how does the activity at 1 µM read?
**A.** Its activity at 1 µM is greater than 500%.

**Q.** With `Cc1c(C)c(N2CCN(c3ccc(S(C)(=O)=O)cc3)CC2)c(C)c2c1OC(C)(C)C2` [Example 92, 1-[4-(Methylsulfonyl)phenyl]-4-(2,2,4,6,7-pentamethyl-2,3-dihydro-1-benzofuran-5-yl)piperazine] as the compound, how does the activity at 1 µM read?
**A.** Its activity at 1 µM is 457%.

**Q.** `COc1ccc(N2CCN(c3c(C)c(C)c4c(c3C)CC(C)(C)O4)CC2)cn1` [Example 40, 1-(6-Methoxypyridin-3-yl)-4-(2,2,4,6,7-pentamethyl-2,3-dihydro-1-benzofuran-5-yl)piperazine] was tested. Which activity at 1 µM did it give?
**A.** The activity at 1 µM was 341%.

**Q.** `CCc1c2c(c(C)c(C)c1N1CCN(c3ccc(OC)cc3)CC1)OC(C)(C)C2` [Example 9, 1-(4-Ethyl-2,2,6,7-tetramethyl-2,3-dihydro-1-benzofuran-5-yl)-4-(4-methoxyphenyl)piperazine] was tested. Which activity at 1 µM did it give?
**A.** The activity at 1 µM was 228%.

**Q.** With `COc1ccc(C2CN(c3c(C)c(C)c4c(c3C)CC(C)(C)O4)CCN2C)cc1` (stereo not drawn) [Example 13, 2-(4-Methoxyphenyl)-1-methyl-4-(2,2,4,6,7-pentamethyl-2,3-dihydro-1-benzofuran-5-yl)piperazine] as the compound, how does the activity at 1 µM read?
**A.** Its activity at 1 µM is 265%.

**Q.** `COc1ccc(N2CCN(c3c(C)c4c(c(OC)c3C)OC(C)C4)CC2)cc1` (stereo not drawn) [Example 48, 1-(4-Methoxyphenyl)-4-(7-methoxy-2,4,6-trimethyl-2,3-dihydro-1-benzofuran-5-yl)piperazine] was tested. Which activity at 1 µM did it give?
**A.** Its activity at 1 µM is greater than 500%.

**Q.** For `COc1ccc(N2CCN(c3c(C)c4c(c(OC)c3C)OC(C)C4)CC2)cc1F` (stereo not drawn) [Example 59, 1-(3-Fluoro-4-methoxyphenyl)-4-(7-methoxy-2,4,6-trimethyl-2,3-dihydro-1-benzofuran-5-yl)piperazine], which activity at 1 µM is on record?
**A.** The activity at 1 µM was 478%.

**Q.** Which activity at 1 µM does the source give for `COc1ccc(N2CCN(c3c(C)c(C)c4c(c3C)CC(C)(C)O4)CC2)cc1OC` [Example 37, 1-(3,4-Dimethoxyphenyl)-4-(2,2,4,6,7-pentamethyl-2,3-dihydro-1-benzofuran-5-yl)piperazine] here?
**A.** Its activity at 1 µM is greater than 500%.

**Q.** For `CCOc1ccc(N2CCN(c3c(C)c4c(c(OC)c3C)OC(C)C4)CC2)cc1` (stereo not drawn) [Example 56, 1-(4-Ethoxyphenyl)-4-(7-methoxy-2,4,6-trimethyl-2,3-dihydro-1-benzofuran-5-yl)piperazine], which activity at 1 µM is on record?
**A.** The activity at 1 µM was greater than 500%.

**Q.** Which activity at 1 µM does the source give for `COc1ccc(N2CCN(c3c(C)c(C)c4c(c3C3CC3)CC(C)(C)O4)CC2)cc1` [Example 7, 1-(4-Cyclopropyl-2,2,6,7-tetramethyl-2,3-dihydro-1-benzofuran-5-yl)-4-(4-methoxyphenyl)piperazine] here?
**A.** The activity at 1 µM was 325%.

**Q.** `COc1ccc(N2CCN(c3c(C)c(C)c4c(c3-c3ccc(N(C)C)cc3)CC(C)(C)O4)CC2)cc1` [Example 5, 4-{5-[4-(4-Methoxyphenyl)piperazin-1-yl]-2,2,6,7-tetramethyl-2,3-dihydro-1-benzofuran-4-yl}-N,N-dimethylaniline] was tested. Which activity at 1 µM did it give?
**A.** Its activity at 1 µM is 488%.

**Q.** Which activity at 1 µM does the source give for `CCOc1c(C)c(N2CCN(c3ccc(OC)cc3)CC2)c(C)c2c1OC(C)(C)C2` [Example 46, 1-(7-Ethoxy-2,2,4,6-tetramethyl-2,3-dihydro-1-benzofuran-5-yl)-4-(4-methoxyphenyl)piperazine] here?
**A.** The activity at 1 µM was 221%.

Same assay, conditions: compound 1 μM + rhIGF-1 100 ng/ml, 3 days culture; absorbance at 450 nm (class III beta-tubulin antibody); control rhIGF-1 only = 100%

**Q.** With `COc1ccc(N2CCN(c3c(C)c(C)c4c(c3C)CC(C)(CO)O4)CC2)cc1` (single isomer, unassigned; (-)) [Example 143, (−)-{5-[4-(4-methoxyphenyl)piperazin-1-yl]-2,4,6,7-tetramethyl-2,3-dihydro-1-benzofuran-2-yl}methanol] as the compound, how does the “Increase Ratio of the Absorbance (% control)” value (“Increase Ratio … (% control)” for short) read?
**A.** Its value is greater than 500 % control.

**Q.** How did the “Increase Ratio … (% control)” value turn out when `COc1ccc(N2CCN(c3c(C)c(C)c4c(c3C)CC(C)(CO)O4)CC2)cc1` (stereo not drawn) [Example 97, {5-[4-(4-Methoxyphenyl)piperazin-1-yl]-2,4,6,7-tetramethyl-2,3-dihydro-1-benzofuran-2-yl}methanol] was run?
**A.** Its value is 439 % control.

**Q.** Which “Increase Ratio … (% control)” value does the source give for `COc1ccc(N2CCN(c3c(C)c(C)c4c(c3C)CC(C)(CO)O4)CC2)cc1` (single isomer, unassigned; (+)) [Example 144, (+)-{5-[4-(4-methoxyphenyl)piperazin-1-yl]-2,4,6,7-tetramethyl-2,3-dihydro-1-benzofuran-2-yl}methanol] here?
**A.** The value was greater than 500 % control.
